Where two headings read alike, the source gives them in different places.
Key:
rat intestine = type: in vivo; conditions: for detection in the effluent fluid: rat single-pass intestinal perfusion after HLF via jugular vein
intestinal microflora = assay: Metabolism of HLF by intestinal microflora; type: in vitro ADME, rat; conditions: anaerobic incubation 37 °C, up to 48 h
[1] = Transport of flavonoids in HLF across Caco-2 cell monolayer; type: in vitro ADME; conditions: human, Caco-2, Papp, Caco-2, range over HLF 50, 100 and 200 µg·mL^−1
[2] = cited from earlier work
[3] = Pharmacokinetics of HLF via oral administration; type: in vivo, rat; conditions: after intragastric administration of HLF
[4] = In situ recirculating intestinal perfusion; type: in vivo; conditions: rat, other: in situ recirculating intestinal perfusion, absorption potential (Papp), rat small intestine, different concentrations of HLF
rat small intestine = assay: In situ recirculating intestinal perfusion; type: in vivo; conditions: different concentrations of HLF

Row | detection in the effluent fluid (rat intestine) | metabolism by the intestinal microflora (intestinal microflora) | Papp [1] | detection in the rat plasma and bile [3] | Papp at 3 h [4] | absorption extent (A) (rat small intestine) | absorption potential (Papp) (rat small intestine) | reduction of cumulative efflux amount (rat intestine; in the presence of VP vs absence) | SMILES | Papp ([2]; previous study) | Papp ([2]; other study)
1 | hardly detected | metabolized to QUE | 2.26 to 3.83 nm/s | cannot be detected | 2.55 to 4.27 nm/s | 11.40 ± 0.98 %·h^−1 | 4.27 ± 0.36 ×10^−7 cm·sec^−1 | – | O=c1c(O[C@@H]2O[C@H](CO)[C@H](O)[C@H](O)[C@H]2O)c(-c2ccc(O)c(O)c2)oc2cc(O)cc(O)c12 [HP, hyperoside] | 1.87 ± 1.11 ×10^−7 cm·sec^−1 | –
2 | hardly detected | metabolized to QUE | 2.28 to 3.04 nm/s | cannot be detected | 0.31 to 1.41 nm/s | – | – | – | C[C@@H]1O[C@@H](OC[C@H]2O[C@@H](Oc3c(-c4ccc(O)c(O)c4)oc4cc(O)cc(O)c4c3=O)[C@H](O)[C@@H](O)[C@@H]2O)[C@H](O)[C@H](O)[C@H]1O [RUT, rutin] | – | 1.03 ± 0.13 ×10^−5 cm·sec^−1
3 | detected | – | 2.18 to 3.83 nm/s | cannot be detected | 0.31 to 1.41 nm/s | – | – | 47.63% | O=c1cc(-c2ccc(O)cc2)oc2c([C@@H]3O[C@H](CO)[C@@H](O)[C@H](O)[C@H]3O)c(O)cc(O)c12 [VIT, vitexin] | – | –
